{
  "source": "paper PMC6713165",
  "about": "“Identification of 1H-pyrazolo[3,4-b]pyridine derivatives as potent ALK-L1196M inhibitors” (Journal of Enzyme Inhibition and Medicinal Chemistry, 2019)",
  "key": {"ROS1": {"molecular_target": "ROS1 (Homo sapiens, UniProt P08922)", "sequence (P08922 28-2347)": "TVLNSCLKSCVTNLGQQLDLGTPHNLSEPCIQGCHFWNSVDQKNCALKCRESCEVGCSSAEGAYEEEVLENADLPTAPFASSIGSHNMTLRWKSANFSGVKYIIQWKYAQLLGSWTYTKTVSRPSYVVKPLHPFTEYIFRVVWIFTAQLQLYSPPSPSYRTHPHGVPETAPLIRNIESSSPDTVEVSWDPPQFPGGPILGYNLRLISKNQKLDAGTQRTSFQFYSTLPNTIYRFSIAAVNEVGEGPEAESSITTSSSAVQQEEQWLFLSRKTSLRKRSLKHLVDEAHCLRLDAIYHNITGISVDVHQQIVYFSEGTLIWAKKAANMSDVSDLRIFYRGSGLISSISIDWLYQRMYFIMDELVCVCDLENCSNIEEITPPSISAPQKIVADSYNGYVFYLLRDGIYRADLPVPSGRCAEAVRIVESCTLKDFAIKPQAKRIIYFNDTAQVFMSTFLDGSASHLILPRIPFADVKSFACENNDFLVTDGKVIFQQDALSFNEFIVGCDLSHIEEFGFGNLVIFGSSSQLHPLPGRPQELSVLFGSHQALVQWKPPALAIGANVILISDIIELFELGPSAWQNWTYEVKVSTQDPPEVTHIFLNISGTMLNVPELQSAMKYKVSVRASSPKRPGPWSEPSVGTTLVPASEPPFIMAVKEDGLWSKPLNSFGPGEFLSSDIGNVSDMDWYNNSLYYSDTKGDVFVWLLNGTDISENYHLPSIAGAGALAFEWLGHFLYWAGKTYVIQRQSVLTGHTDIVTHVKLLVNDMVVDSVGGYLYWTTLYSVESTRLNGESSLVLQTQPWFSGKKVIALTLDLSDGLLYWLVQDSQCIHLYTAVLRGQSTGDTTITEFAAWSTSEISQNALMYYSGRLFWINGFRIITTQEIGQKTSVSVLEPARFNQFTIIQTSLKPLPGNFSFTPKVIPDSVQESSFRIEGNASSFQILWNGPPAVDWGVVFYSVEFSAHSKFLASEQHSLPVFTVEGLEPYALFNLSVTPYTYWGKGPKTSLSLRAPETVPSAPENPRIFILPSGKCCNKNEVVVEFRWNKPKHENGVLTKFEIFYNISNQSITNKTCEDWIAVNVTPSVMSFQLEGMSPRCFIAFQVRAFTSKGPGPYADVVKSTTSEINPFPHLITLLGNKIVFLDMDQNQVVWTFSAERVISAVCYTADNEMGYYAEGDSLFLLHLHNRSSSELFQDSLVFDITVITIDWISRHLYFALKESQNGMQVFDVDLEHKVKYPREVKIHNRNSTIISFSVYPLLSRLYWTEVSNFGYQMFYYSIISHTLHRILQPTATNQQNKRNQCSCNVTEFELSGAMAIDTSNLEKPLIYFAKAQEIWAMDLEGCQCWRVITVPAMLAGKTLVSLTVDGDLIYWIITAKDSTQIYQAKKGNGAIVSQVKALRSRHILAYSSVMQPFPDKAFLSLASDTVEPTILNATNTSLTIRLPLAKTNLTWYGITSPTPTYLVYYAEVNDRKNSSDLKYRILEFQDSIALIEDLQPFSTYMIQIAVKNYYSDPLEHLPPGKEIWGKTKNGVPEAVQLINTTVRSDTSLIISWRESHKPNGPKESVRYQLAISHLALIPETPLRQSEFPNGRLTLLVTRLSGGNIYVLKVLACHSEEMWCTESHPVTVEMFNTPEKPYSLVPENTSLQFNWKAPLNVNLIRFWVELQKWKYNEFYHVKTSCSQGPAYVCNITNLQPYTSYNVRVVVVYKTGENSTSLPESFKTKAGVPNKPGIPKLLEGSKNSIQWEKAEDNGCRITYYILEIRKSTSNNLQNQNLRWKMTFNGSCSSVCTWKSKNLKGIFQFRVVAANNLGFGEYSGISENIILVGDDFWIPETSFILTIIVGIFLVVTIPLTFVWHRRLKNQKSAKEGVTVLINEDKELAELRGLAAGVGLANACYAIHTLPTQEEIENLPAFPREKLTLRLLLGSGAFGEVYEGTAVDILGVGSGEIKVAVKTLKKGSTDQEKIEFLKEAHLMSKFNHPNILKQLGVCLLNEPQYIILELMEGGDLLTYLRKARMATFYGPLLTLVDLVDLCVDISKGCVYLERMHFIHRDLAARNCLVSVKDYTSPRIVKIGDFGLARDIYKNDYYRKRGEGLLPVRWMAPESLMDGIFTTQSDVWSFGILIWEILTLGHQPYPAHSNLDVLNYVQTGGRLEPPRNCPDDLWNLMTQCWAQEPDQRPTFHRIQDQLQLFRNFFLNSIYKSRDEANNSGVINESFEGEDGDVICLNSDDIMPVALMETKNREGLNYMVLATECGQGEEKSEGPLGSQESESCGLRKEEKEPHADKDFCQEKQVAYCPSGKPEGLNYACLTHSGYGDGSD", "assay": "Biochemical kinase assay, ROS1", "method": "Biochemical kinase assay was performed by methods previously reported. Kinase reactions of all test compounds except 10g were carried out at 10 µM ATP. Kinase reaction of 10g was performed at three different concentrations of ATP (10/50/100 µM)."}, "H2228 (EML4-ALK) cells": {"tested_on": "H2228 (EML4-ALK) cells", "assay": "Anti-proliferation assay (CTG), H2228", "assay_type": "cell-based", "conditions": "Homo sapiens, NCI-H2228, 72 h, mean ± SD of three independent experiments", "method": "ALK wt-TEL, ALK L1196M-TEL transformed Ba/F3 and H2228 cell lines were cultured in RPMI1640 (Welgene, # LM011-01). […] Parental Ba/F3 cells were cultured in RPMI1640 media supplemented with 10% foetal bovine serum and 1% penicillin/streptomycin solution in the presence of IL-3. The cells were maintained in a humidified atmosphere containing 5% CO2 at 37 °C.\nCells (ALK wt-TEL, ALK L1196M-TEL and Parental Ba/F3: 1 × 10^4, H2228: 5 × 10^3) were plated in 96 well tissue culture plates. Each compound was added to each well at 10 dose points of three-fold serial dilution in DMSO. After treatment with each compound for 72 h, CTG assay solution (Promega, # G7572) was added to each well."}, "ALK wt-TEL Ba/F3 cells": {"tested_on": "ALK wt-TEL Ba/F3 cells", "assay": "Apoptosis analysis (annexin V-FITC/PI, FACS), ALK wt-TEL Ba/F3", "assay_type": "cell-based", "conditions": "ALK wt-TEL Ba/F3, 24 h, in words", "method": "After 24–48 h following compound treatment, cells were harvested and stained with annexin V (1:500 diluted in annexin V buffer) for 30 min and PI (1:200) solution for 30 min. 1 × 10^6 cells were analysed using flow cytometric analysis. For the cell cycle arrest analysis, cells were harvested by trypsinisation and fixed with 70% ethanol overnight at −20 °C. The next day, cells were harvested and washed with cold DPBS at 500 × g."}, "[1]": {"tested_on": "ALK autophosphorylation and STAT3, ERK, PLC-gamma phosphorylation in ALK wt-TEL Ba/F3, ALK L1196M-TEL Ba/F3 and H2228 cell lines", "assay": "Western blot of ALK autophosphorylation and downstream signalling", "assay_type": "cell-based", "conditions": "in words", "method": "(§1) Cells were harvested and lysed using IP buffer containing 50 mM HEPES (pH 7.4), 1% Triton X-100, 2 mM EDTA, 150 mM NaCl, 2.5 mM NaF, 5 mM Na3VO4, protease inhibitor cocktail tablet (Roche, # 11–878-580–001). The protein concentration was determined by Bradford assay. Proteins were separated using SDS-PAGE and transferred onto NC membrane. The membranes were blocked using 5% skim milk in TBS-T buffer. The rabbit polyclonal antibody against phospho-ALK (Tyr1604, # 3341), phospho-ERK1/2 (Thr202/Tyr204, # 8544), phospho- PLC-gamma (Tyr783, # 14008), phospho-STAT3 (Tyr705, # 4074) and cleaved caspase3 (# 9661) were purchased from Cell Signalling Technologies, and PARP1/2 (H-250, # sc-7150) and anti-β-actin (# sc-47778) antibody was obtained from Santa Cruz Biotechnology. All primary antibodies were diluted in TBS-T at 1:1000. Each primary antibody was incubated overnight at 4 °C, followed by the secondary antibody treatment for 1 h at room temperature. Secondary antibodies were purchased from genDEPOT. Proteins were detected using ECL substrate, and then exposed to X-ray film."}, "[2]": {"tested_on": "cleaved PARP and cleaved caspase-3 in ALK wt-TEL and ALK L1196M-TEL Ba/F3 cells", "assay": "Western blot of apoptosis markers", "assay_type": "cell-based", "conditions": "36 h, in words", "method": "as §1"}},
  "data": [
    {"smiles": "CN1CCN(c2ccc(C(=O)Nc3n[nH]c4ncc(S(=O)(=O)c5cccc(F)c5)cc34)cc2)CC1", "note": "[10g, N-(5-((3-Fluorophenyl)sulfonyl)-1H-pyrazolo[3,4-b]pyridin-3-yl)-4–(4-methylpiperazin-1-yl)benzamide]", "values": [
      {"measurement": "IC50", "setting": "ROS1", "value": "< 1", "unit": "nM"},
      {"measurement": "GI50", "setting": "H2228 (EML4-ALK) cells", "value": "219 ± 50", "unit": "nM"},
      {"measurement": "number of apoptotic cells (FACS)", "setting": "ALK wt-TEL Ba/F3 cells", "value": "increases the number of apoptotic cells in a dose-dependent manner"},
      {"measurement": "ALK autophosphorylation (western blot)", "setting": "[1]; 1 and 10 µM, 2 h, ALK wt-TEL Ba/F3, ALK L1196M-TEL Ba/F3 and H2228 cell lines", "value": "effectively attenuates"},
      {"measurement": "phosphorylation levels of STAT3, ERK and PLC-gamma (western blot)", "setting": "[1]; 2 h, dose-dependent", "value": "moderately suppressed"},
      {"measurement": "inhibition of ALK autophosphorylation compared with crizotinib", "setting": "[1]; ALK L1196M-TEL Ba/F3 cells", "value": "more effective than crizotinib"},
      {"measurement": "levels of cleaved PARP and cleaved caspase-3 (western blot)", "setting": "[2]", "value": "increases in the levels of cleaved PARP and cleaved caspase-3"}
    ]}
  ]
}
